Like-named read-outs stand apart in the source and are kept apart here.
How the values were obtained:
[1] = processed extract sample, 24h
[2] = human, 6 h
[3] = tested on: Mycobacterium tuberculosis; conditions: not measured in this paper, cited from earlier work
[4] = human
[5] = Phase Ia clinical pharmacokinetic trial, plasma levels in healthy volunteers; conditions: human
Protocol: The phase 1a clinical study assessing the safety and pharmacokinetics of PBTZ169 in healthy volunteers (NCT03423030), was performed at the Service of Clinical Pharmacology of the Lausanne University Hospital and was approved on 06.09.2017 (2017–01241) by the Ethics Committee of the Canton of Vaud (CER-VD) and on 17.11.2017 (2017DR1171) by Swissmedic. All volunteers gave their written informed consent.
The concentration measured in this plasma sample is 464 ng/mL, 147 ng/mL, 13 ng/mL, 12 ng/mL and 2 ng/mL for PBTZ169, Met 3-OH, Met 3-oxo, Met amino and Met 1-OH, respectively. […] Of note, measured plasma levels were multiplied by the factor 1.1 accounting for the blood 10:1 dilution due to citrate solution.

[6] = Long-term stability in plasma; assay type: in vitro ADME, human; conditions: -20°C and -80°C
Protocol: Long-term stability in plasma. Stability in citrated plasma stored at -20°C and -80°C in suitable tubes for long-term storage (1, 3, 6 and 12 months) was evaluated at 1, 10, 100 and 1000 ng/mL. Deviations of the mean concentrations (n = 3) of samples measured at each time points from the nominal concentrations were calculated.

[7] = assay type: physicochemical; conditions: DMSO:MeOH (1:1 v/v), -20°C
Protocol: Each compound was independently weighed and the corresponding powder dissolved in the required volume of DMSO to give a 1 mg/mL stock solution of the compound that was sonicated for 5 minutes. The stock solution used for PBTZ169 was corrected for salt form of the analyte by applying the weighing factor (0.926). Due to the high purity of the PBTZ169 and the five metabolites, no additional correcting factors were applied for preparing compounds stock solutions. Stock solutions were prepared in 5 mL PP tubes and stored at -20°C. The stability of these solutions was verified over a period of 6 months (mean bias < 8%) and of 9 months (mean bias < 9%)
PBTZ169 and metabolites mixture solutions. Two distinct working solutions (WS) including PBTZ169 together with its five active metabolites were prepared: one for calibration standards and one for validation standards/quality control (QC) samples. Working solutions including all the analytes at 100 μg/mL were obtained by adding the required volumes of compounds stock solutions (50 μL) to 200 μL of a DMSO/MeOH (1:1 v/v) mixture in safe-lock 1.5 mL PP tubes. Spiking solutions for calibration, validation standards and QCs at the appropriate concentrations were prepared by applying sequential dilutions in DMSO/MeOH (1:1 v/v) mixture starting from the dedicated WS in safe-lock 1.5 mL PP tubes and thoroughly mixed. […]

SMILES	% from t0 ([1]; 4°C, level H (QC 1500 ng/mL))	% from t0 ([1]; 4°C, level L (QC 2 ng/mL))	% from t0 ([1]; 4°C, level M (QC 150 ng/mL))	% from t0 ([1]; RT, level H (QC 1500 ng/mL))	% from t0 ([1]; RT, level L (QC 2 ng/mL))	% from t0 ([1]; RT, level M (QC 150 ng/mL))	% from freshly processed samples (n=2) ([2]; 0.5 ng/mL)	% from freshly processed samples (n=2) ([2]; 1 ng/mL)	% from freshly prepared samples ([2]; 2 ng/mL)	% from freshly processed samples (n=2) ([2]; 2 ng/mL)	% from freshly processed samples (n=2) ([2]; 50 ng/mL)	% from freshly prepared samples ([2]; 150 ng/mL)	% from freshly processed samples (n=2) ([2]; 500 ng/mL)	% from freshly processed samples (n=2) ([2]; 1000 ng/mL)	% from freshly prepared samples ([2]; 1500 ng/mL)	% from freshly processed samples (n=2) ([2]; 2000 ng/mL)	anti-TB activity in vitro (active / inactive) [3]	% from t0 ([4]; 1 h, 10 ng/mL)	% from t0 ([4]; 1 h, 20 ng/mL)	% from t0 ([4]; 1 h, 50 ng/mL)	also measured
O=c1nc(N2CCN(CC3(O)CCCCC3)CC2)sc2c([N+](=O)[O-])cc(C(F)(F)F)cc12 [Met 1-OH]	-2%	-12%	-9%	-12%	-55%	-33%	-15%	-9%	-4%	-4%	-1%	-3%	-1%	0%	-2%	-1%	active	4%	3%	-1%	% from t0 ([4]; 1 h, 100 ng/mL): 2%; % from t0 ([4]; 1 h, 200 ng/mL): -1%; % from t0 ([4]; 1 h, 500 ng/mL): -4%; % from t0 ([4]; 2 h, 10 ng/mL): 1%; % from t0 ([4]; 2 h, 20 ng/mL): -2%; % from t0 ([4]; 2 h, 50 ng/mL): -4%; % from t0 ([4]; 2 h, 100 ng/mL): 0%; % from t0 ([4]; 2 h, 200 ng/mL): -3%; % from t0 ([4]; 2 h, 500 ng/mL): -6%; % from t0 ([4]; 4 h, 10 ng/mL): -1%; % from t0 ([4]; 4 h, 20 ng/mL): 0%; % from t0 ([4]; 4 h, 50 ng/mL): -9%; % from t0 ([4]; 4 h, 100 ng/mL): -2%; % from t0 ([4]; 4 h, 200 ng/mL): -4%; % from t0 ([4]; 4 h, 500 ng/mL): -11%; plasma levels in volunteers ([5]; in vivo): below 0.5 ng/mL
O=c1nc(N2CCN(CC3CCCC(O)C3)CC2)sc2c([N+](=O)[O-])cc(C(F)(F)F)cc12 (centres unmarked) [Met 3-OH]	-2%	-14%	-9%	-14%	-59%	-36%	-14%	-13%	-7%	-10%	-8%	-5%	-6%	-1%	-4%	-2%	active	6%	8%	12%	% from freshly processed samples (n=2) ([2]; 0.2 ng/mL): 3%; % from t0 ([4]; 1 h, 100 ng/mL): 5%; % from t0 ([4]; 1 h, 200 ng/mL): 5%; % from t0 ([4]; 1 h, 500 ng/mL): 8%; % from t0 ([4]; 2 h, 10 ng/mL): 7%; % from t0 ([4]; 2 h, 20 ng/mL): 7%; % from t0 ([4]; 2 h, 50 ng/mL): 12%; % from t0 ([4]; 2 h, 100 ng/mL): 4%; % from t0 ([4]; 2 h, 200 ng/mL): 1%; % from t0 ([4]; 2 h, 500 ng/mL): 9%; % from t0 ([4]; 4 h, 10 ng/mL): 4%; % from t0 ([4]; 4 h, 20 ng/mL): 12%; % from t0 ([4]; 4 h, 50 ng/mL): 15%; % from t0 ([4]; 4 h, 100 ng/mL): 4%; % from t0 ([4]; 4 h, 200 ng/mL): 6%; % from t0 ([4]; 4 h, 500 ng/mL): 1%
O=c1nc(N2CCN(CC3CCCCC3O)CC2)sc2c([N+](=O)[O-])cc(C(F)(F)F)cc12 (centres unmarked) [Met 2-OH]	-4%	-16%	-10%	-18%	-61%	-39%	-16%	-6%	-8%	-6%	-4%	-4%	-3%	0%	-4%	-2%	active	1%	1%	-10%	% from t0 ([4]; 1 h, 100 ng/mL): 2%; % from t0 ([4]; 1 h, 200 ng/mL): -2%; % from t0 ([4]; 1 h, 500 ng/mL): -9%; % from t0 ([4]; 2 h, 10 ng/mL): -1%; % from t0 ([4]; 2 h, 20 ng/mL): -1%; % from t0 ([4]; 2 h, 50 ng/mL): -17%; % from t0 ([4]; 2 h, 100 ng/mL): -2%; % from t0 ([4]; 2 h, 200 ng/mL): -5%; % from t0 ([4]; 2 h, 500 ng/mL): -15%; % from t0 ([4]; 4 h, 10 ng/mL): -3%; % from t0 ([4]; 4 h, 20 ng/mL): -2%; % from t0 ([4]; 4 h, 50 ng/mL): -30%; % from t0 ([4]; 4 h, 100 ng/mL): -3%; % from t0 ([4]; 4 h, 200 ng/mL): -6%; % from t0 ([4]; 4 h, 500 ng/mL): -26%; detection in vivo in plasma [5]: not detected
Nc1cc(C(F)(F)F)cc2c(=O)nc(N3CCN(CC4CCCCC4)CC3)sc12 [Met amino]																	inactive				anti-TB activity in vitro (active / inactive) ([3]; listed as amino metabolite): devoid of anti-TB activity; time spiked plasma samples stability has been verified [6]: 1 month; time working solutions are stable [7]: ≥ 3 months
O=C(C1CCCCC1)N1CCN(c2nc(=O)c3cc(C(F)(F)F)cc([N+](=O)[O-])c3s2)CC1 [Met oxo]	4%	-3%	5%	25%	6%	29%	-11%	-12%	-6%	-6%	-10%	-8%	-8%	-3%	-5%	-3%	active	1%	1%	-1%	% from t0 ([4]; 1 h, 100 ng/mL): -1%; % from t0 ([4]; 1 h, 200 ng/mL): 0%; % from t0 ([4]; 1 h, 500 ng/mL): -5%; % from t0 ([4]; 2 h, 10 ng/mL): -3%; % from t0 ([4]; 2 h, 20 ng/mL): -4%; % from t0 ([4]; 2 h, 50 ng/mL): -8%; % from t0 ([4]; 2 h, 100 ng/mL): -3%; % from t0 ([4]; 2 h, 200 ng/mL): 1%; % from t0 ([4]; 2 h, 500 ng/mL): -5%; % from t0 ([4]; 4 h, 10 ng/mL): -1%; % from t0 ([4]; 4 h, 20 ng/mL): 0%; % from t0 ([4]; 4 h, 50 ng/mL): -6%; % from t0 ([4]; 4 h, 100 ng/mL): -4%; % from t0 ([4]; 4 h, 200 ng/mL): 1%; % from t0 ([4]; 4 h, 500 ng/mL): -8%; detection in vivo in plasma [5]: not detected
O=C1CCCC(CN2CCN(c3nc(=O)c4cc(C(F)(F)F)cc([N+](=O)[O-])c4s3)CC2)C1 (centres unmarked) [Met 3-oxo]	-2%	-14%	-9%	-10%	-58%	-37%	-14%	-2%	-4%	-10%	-6%	-4%	-4%	0%	-4%	-1%	active	-1%	-6%	-22%	% from freshly processed samples (n=2) ([2]; 0.2 ng/mL): 6%; % from t0 ([4]; 1 h, 100 ng/mL): 0%; % from t0 ([4]; 1 h, 200 ng/mL): -9%; % from t0 ([4]; 1 h, 500 ng/mL): -22%; % from t0 ([4]; 2 h, 10 ng/mL): -5%; % from t0 ([4]; 2 h, 20 ng/mL): -9%; % from t0 ([4]; 2 h, 50 ng/mL): -32%; % from t0 ([4]; 2 h, 100 ng/mL): -5%; % from t0 ([4]; 2 h, 200 ng/mL): -11%; % from t0 ([4]; 2 h, 500 ng/mL): -31%; concentration deviation in whole blood ([4]; 4 h): exceeded the accepted -15% limit; % from t0 ([4]; 4 h, 10 ng/mL): -9%; % from t0 ([4]; 4 h, 20 ng/mL): -15%; % from t0 ([4]; 4 h, 50 ng/mL): -51%; % from t0 ([4]; 4 h, 100 ng/mL): -10%; % from t0 ([4]; 4 h, 200 ng/mL): -18%; % from t0 ([4]; 4 h, 500 ng/mL): -50%

Source: article PMC6544242, “Development and validation of a multiplex UHPLC-MS/MS method for the determination of the investigational antibiotic against multi-resistant tuberculosis macozinone (PBTZ169) and five active metabolites in human plasma” (PLoS ONE, 2019)
